Laboratory results from patent publication US7517902B2, “Substituted indazoles, compositions containing the same, and the preparation and use thereof” (Aventis Pharma S.A., priority 2004, dated 2009).
Where a name gives a salt, the structure may show the parent alone.

Key:
[1] = target: T1, human Tie2 (Homo sapiens, UniProt Q02763); assay: Tie2 assay of PLC phosphorylation (FlashPlate); format: biochemical; conditions: read-out: IC 50 TIE2
T1 construct: amino acids of the intracellular domain 776-1124; made in house

[2] = target: T2, CDK4/cyclin D1 kinase complex (Homo sapiens, UniProt P11802); assay: CDK4/cyclinD1 Flashplate assay in 96-well format; format: biochemical; conditions: read-out: IC 50 CDK4
T2 construct: HA (Hemagglutinin tag) (C); made in house; host or cells: Sf9 insect cells (baculovirus co-infection)
Protocol: Purification of the CDK4-HA/cyclin D1-(His)6 complex by IMAC (Immobilized Metal Affinity Chromatography):
Two recombinant baculoviruses carrying the human sequences coding respectively for CDK4-HA (C-terminal fusion with the Hemagglutinin tag) and for cyclin D1-(His)6 are used to co-infect Sf9 insect cells. Sixty hours after the beginning of co-infection, the cells are harvested by centrifugation and then frozen at −20° C. until their use. After thawing in buffer A (HEPES 200 mM pH 7.0, NaCl 50 mM, MgCl2 2 mM, imidazole 25 mM, TCEP 1 mM, glycerol 10% (w/v), NaF 1 mM, Na3VO4 1 mM), stirring at 4° C. for 1 h, and centrifugation, the complex present in the lysis supernatant is purified by affinity chromatography on nickel (IMAC) and stored at −80° C.
CDK4/cyclinD1 Flashplate Assay in 96-Well Format.
An assay in 96-well “Flashplate” (scintillation plate) plates coated with streptavidin is used to evaluate the inhibition of the CDK4/cyclin D1 kinase complex by the products of the invention. To perform this test, the biotinylated peptide substrate, a fragment of the pRb protein, (biotinyl-[…]-amide), is dissolved at a concentration of 2 mM in kinase buffer (HEPES/NaOH 50 mM, NaCl 1 mM, MgCl2 5 mM, pH=7.5) to form a stock solution, which is stored at −20° C. in the form of 110 μl aliquots. On the day of the experiment, an aliquot of this solution is thawed and diluted in kinase buffer containing 1 mM of dithiothreitol, added at the time of use, so as to give a final peptide concentration of 2.571 μM. seventy μl of this solution are deposited in each well of the Flashplate plate, to give a final substrate concentration of 1.8 μM during the enzymatic reaction, which is performed in a final volume of 100 μl (cf. below). Intermediate dilutions of inhibitors (products of the invention) at various concentrations are prepared in DMSO from 10 mM stock solutions in separate tubes. In this way dilutions at 1000 μM, 333.3 μM, 111.1 μM, 37.03 μM, 12.35 μM, 4.11 μM and 1.37 μM are produced. One μl of each of these solutions (or 1 μl of DMSO for the controls) is subsequently transferred into the wells of the assay plate. To each well there is subsequently added 19 μl of a solution of a mixture of adenosine triphosphate (ATP) and ATPγ^33P in the kinase buffer at a concentration of 5.26 μM of total ATP and 78.9 μCi/ml of ^33P. The enzymatic reaction is triggered by adding 10 μl per well of a solution of CDK4/cyclin D1 complex at 250 nM in the kinase buffer, containing 1 mM of dithiothreitol (or 10 μl of kinase buffer containing 1 mM of dithiothreitol for the reaction blanks). At the end of the various additions, the final volume in each well is 100 μl, the final substrate concentration is 1.8 μM, the final inhibitor concentrations are 10 μM, 3.33 μM, 1.11 μM, 0.37 μM, 0.123 μM, 0.041 μM and 0.014 μM (depending on the concentration of the intermediate dilution), the final ATP concentration is 1 μM, the final amount of ^33P is 1.5 μCi/well, and the final concentration of CDK4/cyclin D1 complex is 25 nM.
After all of the reagents have been added, the assay plate is incubated at 30° C. with orbital stirring at 650 rpm. Following incubation, the plate is washed three times with 300 μl per well of PBS buffer (phosphate buffered saline, pH=7.4 with neither calcium nor magnesium, reference 10010-015, Gibco BRL). The incorporation of ^33P into the substrate peptide is measured by scintillation counting using a Packard Topcount.NXT instrument. The inhibitory activity of the products of the invention is evaluated by determining the concentration of inhibitor resulting in a 50% reduction in the enzymatic activity (IC50).

T2 sequence (P11802 whole entry): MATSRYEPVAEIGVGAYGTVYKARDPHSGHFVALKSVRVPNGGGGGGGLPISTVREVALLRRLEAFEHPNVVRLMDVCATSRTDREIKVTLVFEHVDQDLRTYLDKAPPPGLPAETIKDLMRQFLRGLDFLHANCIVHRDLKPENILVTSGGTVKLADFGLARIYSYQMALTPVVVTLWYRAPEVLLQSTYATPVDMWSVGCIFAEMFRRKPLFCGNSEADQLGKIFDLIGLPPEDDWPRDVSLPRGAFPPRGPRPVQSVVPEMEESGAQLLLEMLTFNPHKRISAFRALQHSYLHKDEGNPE
T2 sequence (P24385 whole entry partner): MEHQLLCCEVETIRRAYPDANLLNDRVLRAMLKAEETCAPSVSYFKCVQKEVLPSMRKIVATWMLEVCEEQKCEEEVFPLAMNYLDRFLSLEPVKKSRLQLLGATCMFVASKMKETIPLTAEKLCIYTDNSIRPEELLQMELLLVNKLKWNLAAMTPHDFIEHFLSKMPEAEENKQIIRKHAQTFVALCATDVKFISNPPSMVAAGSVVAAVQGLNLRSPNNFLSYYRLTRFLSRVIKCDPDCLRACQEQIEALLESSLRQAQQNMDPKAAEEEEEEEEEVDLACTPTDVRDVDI
T1 sequence (Q02763 776-1124): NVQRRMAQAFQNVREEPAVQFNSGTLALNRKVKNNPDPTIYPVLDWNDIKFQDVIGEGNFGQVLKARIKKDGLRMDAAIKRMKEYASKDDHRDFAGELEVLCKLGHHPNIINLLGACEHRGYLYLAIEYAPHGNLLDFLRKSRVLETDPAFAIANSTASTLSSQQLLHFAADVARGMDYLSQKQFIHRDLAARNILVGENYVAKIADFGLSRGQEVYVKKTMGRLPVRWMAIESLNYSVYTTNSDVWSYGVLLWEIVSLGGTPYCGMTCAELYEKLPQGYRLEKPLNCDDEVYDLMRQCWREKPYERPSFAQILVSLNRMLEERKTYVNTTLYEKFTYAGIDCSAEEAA

Structure (SMILES)	IC50 [1] [nM]	IC50 [2] [nM]
O=C(Nc1n[nH]c2cc(-c3ccc(NS(=O)(=O)c4cccc(Cl)c4Cl)cc3)ccc12)c1ccsc1 [Example 3, 3-Thiophenecarboxylic acid {6-[4-(2,3dichlorobenzenesulfonylamino)phenyl]-1H-indazol-3-yl}amide]	4	145
Nc1n[nH]c2c(F)c(-c3ccc(NS(=O)(=O)c4cccc(Cl)c4Cl)cc3)ccc12 [Example 8, 1-[4-(3-Amino-1H-indazol-6-yl)-7-fluorophenyl]-2,3-dichlorobenzenesulfonamide hydrochloride]	10	117
O=C(Nc1n[nH]c2c(F)c(-c3ccc(NS(=O)(=O)c4cccc(Cl)c4Cl)cc3)ccc12)c1ccsc1 [Example 5, 3-Thiophenecarboxylic acid {6-[4-(2,3-dichlorobenzenesulfonylamino)-7-fluorophenyl]-1H-indazol-3-yl}amide]	2	55
Nc1n[nH]c2cc(-c3ccc(NS(=O)(=O)c4cccc(Cl)c4Cl)cc3)ccc12 [Example 2, 1-[4-(3-Amino-1H-indazol-6-yl)phenyl]-2,3-dichlorobenzenesulfonamide hydrochloride]	15	132
